Tests used:
Format in all cases: binding
panel of 442 kinases [1] = biological target: T1, panel of 442 kinases (Homo sapiens, UniProt Q00535); conditions: Compound Concentration 10 µM
T1 construct: purchased KINOMEscan
Source text: (§1) We assessed the selectivity of members of this scaffold using the KINOMEscan methodology across a near comprehensive panel of 442 kinases [[18,27]].

panel of 442 kinases [2] = biological target: T2, panel of 442 kinases (Homo sapiens, UniProt Q9BX84); conditions: kinase TRPM6; compound concentration 10 µM
T2 construct: purchased KINOMEscan
T2 sequence (Q9BX84 whole entry): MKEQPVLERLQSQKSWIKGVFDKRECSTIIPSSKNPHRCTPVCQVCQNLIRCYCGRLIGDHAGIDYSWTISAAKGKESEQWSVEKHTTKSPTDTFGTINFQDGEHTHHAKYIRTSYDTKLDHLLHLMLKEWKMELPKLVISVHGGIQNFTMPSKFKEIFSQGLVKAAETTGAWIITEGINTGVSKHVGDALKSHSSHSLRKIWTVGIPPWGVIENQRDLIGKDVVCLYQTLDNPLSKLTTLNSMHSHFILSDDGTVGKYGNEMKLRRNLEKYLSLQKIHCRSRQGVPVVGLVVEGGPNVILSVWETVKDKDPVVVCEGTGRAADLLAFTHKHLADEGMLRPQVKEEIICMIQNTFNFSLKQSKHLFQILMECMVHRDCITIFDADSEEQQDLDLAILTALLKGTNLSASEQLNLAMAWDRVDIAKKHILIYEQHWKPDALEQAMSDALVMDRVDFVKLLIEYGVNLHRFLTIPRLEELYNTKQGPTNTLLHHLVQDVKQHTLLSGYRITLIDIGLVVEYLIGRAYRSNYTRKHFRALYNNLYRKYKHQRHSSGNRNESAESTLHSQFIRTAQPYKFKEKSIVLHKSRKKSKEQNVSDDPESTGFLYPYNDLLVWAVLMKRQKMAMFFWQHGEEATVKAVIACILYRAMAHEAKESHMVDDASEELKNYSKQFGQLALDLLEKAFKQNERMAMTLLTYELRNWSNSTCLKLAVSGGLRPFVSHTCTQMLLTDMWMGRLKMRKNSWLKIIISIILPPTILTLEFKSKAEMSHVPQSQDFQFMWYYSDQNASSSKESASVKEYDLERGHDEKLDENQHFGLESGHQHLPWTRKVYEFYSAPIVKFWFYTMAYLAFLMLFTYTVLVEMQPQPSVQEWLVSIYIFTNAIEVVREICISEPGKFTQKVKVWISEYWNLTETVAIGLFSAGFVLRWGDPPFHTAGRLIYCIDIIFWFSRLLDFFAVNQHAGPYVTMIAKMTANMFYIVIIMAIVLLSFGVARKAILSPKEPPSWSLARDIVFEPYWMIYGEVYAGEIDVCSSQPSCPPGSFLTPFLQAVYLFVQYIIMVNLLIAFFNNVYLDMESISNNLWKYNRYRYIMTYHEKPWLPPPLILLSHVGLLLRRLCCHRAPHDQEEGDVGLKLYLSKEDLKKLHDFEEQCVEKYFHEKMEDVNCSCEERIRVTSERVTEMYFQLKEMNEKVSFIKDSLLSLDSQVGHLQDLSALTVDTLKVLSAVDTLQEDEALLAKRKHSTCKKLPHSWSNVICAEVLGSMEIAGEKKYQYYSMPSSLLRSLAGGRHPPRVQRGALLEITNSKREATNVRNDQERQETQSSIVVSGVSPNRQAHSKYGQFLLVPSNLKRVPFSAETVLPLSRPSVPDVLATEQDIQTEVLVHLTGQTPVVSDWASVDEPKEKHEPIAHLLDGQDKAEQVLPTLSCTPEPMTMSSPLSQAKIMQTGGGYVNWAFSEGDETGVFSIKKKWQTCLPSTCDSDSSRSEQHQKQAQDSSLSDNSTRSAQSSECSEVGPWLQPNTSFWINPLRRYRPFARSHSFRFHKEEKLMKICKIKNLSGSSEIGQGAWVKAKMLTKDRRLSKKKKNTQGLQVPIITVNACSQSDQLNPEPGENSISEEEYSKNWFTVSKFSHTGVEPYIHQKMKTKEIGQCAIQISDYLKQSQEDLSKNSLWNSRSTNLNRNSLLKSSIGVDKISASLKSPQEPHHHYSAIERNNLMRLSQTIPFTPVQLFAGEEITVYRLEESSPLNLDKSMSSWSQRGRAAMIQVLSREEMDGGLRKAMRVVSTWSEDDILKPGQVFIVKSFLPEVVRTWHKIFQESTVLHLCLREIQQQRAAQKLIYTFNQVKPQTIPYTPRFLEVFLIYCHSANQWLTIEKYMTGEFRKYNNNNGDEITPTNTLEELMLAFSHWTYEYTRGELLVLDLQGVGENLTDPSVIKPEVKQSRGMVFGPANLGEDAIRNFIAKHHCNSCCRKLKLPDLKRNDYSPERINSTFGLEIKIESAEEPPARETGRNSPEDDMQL
Source text: as §1

panel of 442 kinases [3] = biological target: T3, panel of 442 kinases (Homo sapiens, UniProt Q9BZL6); conditions: Compound Concentration 10 µM
T3 construct: purchased KINOMEscan
T3 sequence (Q9BZL6 1-878): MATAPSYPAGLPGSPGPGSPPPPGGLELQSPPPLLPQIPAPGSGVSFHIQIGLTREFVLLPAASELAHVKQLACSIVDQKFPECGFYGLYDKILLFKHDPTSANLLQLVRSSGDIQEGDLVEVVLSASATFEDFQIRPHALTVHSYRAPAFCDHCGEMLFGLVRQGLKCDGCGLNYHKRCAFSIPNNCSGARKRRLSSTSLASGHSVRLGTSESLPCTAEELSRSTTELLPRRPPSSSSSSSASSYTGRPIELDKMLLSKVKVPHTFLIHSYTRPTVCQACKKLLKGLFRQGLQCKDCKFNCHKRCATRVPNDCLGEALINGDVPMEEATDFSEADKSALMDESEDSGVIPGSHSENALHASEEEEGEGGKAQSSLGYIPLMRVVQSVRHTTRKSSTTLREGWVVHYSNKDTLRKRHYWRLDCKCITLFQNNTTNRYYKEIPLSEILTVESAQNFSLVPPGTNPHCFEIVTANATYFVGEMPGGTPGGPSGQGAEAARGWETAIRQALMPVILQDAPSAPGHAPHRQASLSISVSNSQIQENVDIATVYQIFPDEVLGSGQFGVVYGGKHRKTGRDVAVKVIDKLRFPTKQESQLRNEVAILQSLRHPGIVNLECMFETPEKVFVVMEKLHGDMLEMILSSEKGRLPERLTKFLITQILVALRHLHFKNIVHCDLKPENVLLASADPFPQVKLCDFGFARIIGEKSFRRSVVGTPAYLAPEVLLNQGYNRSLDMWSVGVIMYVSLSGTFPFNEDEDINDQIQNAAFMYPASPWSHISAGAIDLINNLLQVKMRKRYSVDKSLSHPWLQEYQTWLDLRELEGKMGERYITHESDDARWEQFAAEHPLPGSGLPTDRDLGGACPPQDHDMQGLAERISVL
Source text: as §1

T1 sequence (Q00535 whole entry): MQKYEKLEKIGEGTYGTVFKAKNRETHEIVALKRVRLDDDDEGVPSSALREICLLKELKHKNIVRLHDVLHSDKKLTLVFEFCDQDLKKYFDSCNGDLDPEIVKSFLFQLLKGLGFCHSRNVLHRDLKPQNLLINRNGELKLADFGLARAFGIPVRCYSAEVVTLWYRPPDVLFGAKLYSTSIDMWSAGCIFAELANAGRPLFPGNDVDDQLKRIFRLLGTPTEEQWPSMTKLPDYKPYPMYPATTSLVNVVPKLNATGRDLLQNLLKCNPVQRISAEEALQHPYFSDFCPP

Row | SMILES | KINOMEscan: CDK5 (panel of 442 kinases [1]) | % Ctrl, TRPM6 (panel of 442 kinases [2]) | KINOMEscan: PRKD2 (panel of 442 kinases [3])
1 | CCOc1cc(C(=O)N2CCC(N3CCN(C)CC3)CC2)ccc1Nc1ncc2c(n1)N(C1CCCC1)c1ccccc1C(=O)N2C [Compound 26] | 100 | 94 % Ctrl | 100
2 | COc1cc(C(=O)N2CCC(N3CCN(C)CC3)CC2)ccc1Nc1ncc2c(n1)N1CCc3cccc(c31)C(=O)N2C [Compound 24] | – | 100 % Ctrl | 30
3 | COc1cc(C(=O)N2CCC(N3CCN(C)CC3)CC2)ccc1Nc1ncc2c(n1)N(C)c1ccccc1C(=O)N2C [15 (LRRK2-IN-1)] | 81 | 100 % Ctrl | 59
4 | COc1cc(C(=O)N2CCC(N3CCN(C)CC3)CC2)ccc1Nc1ncc2c(n1)N(C1CCCC1)c1ccccc1C(=O)N2C [Compound 25, 11-cyclopentyl-2-((2-methoxy-4-(4-(4-methylpiperazin-1-yl)piperidine-1-carbonyl)phenyl)amino)-5-methyl-5H-benzo[e]pyrimido[5,4-b][1,4]diazepin-6(11H)-one] | 94 | 100 % Ctrl | 87
